In patent publication US20250057764A1, “COMPOSITIONS, METHODS AND SYSTEMS FOR AEROSOL DRUG DELIVERY” (ASTRAZENECA AB, priority 2021, published 2025):
Where a name gives a salt, the structure may show the parent alone. Read-outs that look alike come from different tables or passages of the source.

How the values were obtained:
[1] = Particle size distribution by laser diffraction; format: physicochemical
From the text: When referred to herein, the term “optical diameter” indicates the size of a particle as measured by the Fraunhofer diffraction mode using a laser diffraction particle size analyzer equipped with a dry powder dispenser (e.g., Sympatec GmbH, Clasthal-Zellerfeld, Germany).
Suspending particles were manufactured by spray drying an emulsion of PFOB (perfluorooctyl bromide) and water stabilized by DSPC (1,2-Distearoyl-sn-Glycero-3-Phosphocholine). Detailed preparation procedures have been documented previously. The particle size distribution of the suspending particles was determined by laser diffraction.
Active agent particles formed of budesonide, 16,17-(butylidenebis(oxy))-11,21-dihydroxy-, (11-β,16-α)-pregna-1,4-diene-3,20-dione, were formed by micronizing budesonide using a jet mill. The particle size distribution of the budesonide (BD) was determined by laser diffraction.

[2] = Aerodynamic particle size distribution by NGI (FPF, FPD, MMAD) of HFC-152a co-suspension MDIs; format: physicochemical
From the text: (§1) In the context of a composition containing or providing respirable aggregates, particles, drops, etc., such as compositions described herein, the term “fine particle dose” or “FPD” refers to the dose, either in total mass or fraction of the nominal dose or metered dose, that is within a respirable range. The dose that is within the respirable range in measured in vitro to be the sum of the dose delivered at stages 3 through Micro Orifice Collector in a Next Generation Impactor operated at a flow rate of 30 l/min.
(§2) In the context of a composition containing or providing respirable aggregates, particles, drops, etc., such as compositions described herein, the term “fine particle fraction” or “FPF” refers to the proportion of the delivered material relative to the delivered dose (i.e. the amount that exits the actuator of a delivery device, such as an MDI) that is within a respirable range. The amount of delivered material within the respirable range is measured in vitro as the sum of the material delivered at stages 3 through Micro Orifice Collector in a Next Generation Impactor operated at a flow rate of 30 l/min.
The mixture is agitated to facilitate powder wetting and then transferred to a pressure vessel where the suspension is mixed. Valves comprised of 50 uL metering chambers (BK357, Bespak, King's Lynn, UK) are crimped onto fluorinated ethylene polymer (FEP) coated aluminum cans (Presspart, Blackburn, UK) and the suspension is then pressure filled through the valve.
Metered dose inhalers containing a triple co-suspension composition comprising glycopyrrolate, budesonide, and formoterol active agent particles were prepared, with each type of active agent particle being provided as a micronized, crystalline API material.

[3] = Aerodynamic particle size distribution by NGI after storage of the MDI (stability); format: physicochemical; conditions: active in BGF-152a
From the text: as §1, §2
The fine particle fraction (FPF) present in the delivered dose upon actuation of an MDI containing budesonide, formoterol, or glycopyrrolate active agent particles and phospholipid particles was measured following storage of the MDI under various temperature and relative humidity conditions for varied periods of time. […]

[4] = cited from earlier work; for Latent Heat @ Boiling Point: at boiling point
[5] = active in BGF-152a MDI, Example 2

## COc1ccc(CC(C)NCC(O)c2ccc(O)c(NC=O)c2)cc1.O=C(O)/C=C/C(=O)O (racemic) [FF, (±)-2-hydroxy-5-[(1RS)-1-hydroxy-2-[[(1RS)-2-(4-methoxyphenyl)-1-methylethyl]-amino]ethyl]formanilide fumarate]
[1]
  Optical diameter / size of 50% by volume of the particles (smaller than): smaller than 1.6 μm
  Optical diameter / size of 90% by volume of the particles (smaller than): smaller than 3.9 μm

## CC(C)(C)NCC(O)c1ccc(O)c(CO)c1 (stereo not drawn) [AB, α1 [(tert-butylamino)methyl]-4-hydroxy-m xylene-α,α′-diol sulfate]
[1]
  Optical diameter / size of 50% by volume of the particles (smaller than): smaller than 1.5 μm
  Optical diameter / size of 90% by volume of the particles (smaller than): smaller than 3.3 μm
[2]; active in BDA-152a MDI
  FPD, <6.4 μm (μg/act): 28.68 ± 0.61 μg/act
  FPF, <6.4 μm (%): 31 ± 1%
  MMAD (μm): 4.36 ± 0.06 μm

## C[N+]1(C)CCC(OC(=O)C(O)(c2ccccc2)C2CCCC2)C1.[Br-] (centres unmarked) [GP, Pyrrolidinium, 3-((cyclopentylhydroxyphenylacetyl)oxy)-1,1-dimethyl-, bromide]
[1]
  Optical diameter / size of 50% by volume of the particles (smaller than): smaller than 2.1 μm
  Optical diameter / size of 90% by volume of the particles (smaller than): smaller than 5 μm
[2]; [5]
  FPD, <6.4 μm (μg/act): 3.69 ± 0.36 μg/act
  FPF, <6.4 μm (%): 49 ± 3%
[2]; active in GFF-152a MDI
  FPD, <6.4 μm (μg/act): 3.56 ± 0.18 μg/act
  FPF, <6.4 μm (%): 48 ± 1%
  MMAD (μm): 3.43 ± 0.07 μm
[3]; 1 month 25° C./60% RH
  FPD, <6.4 μm (μg/act): 3.02 ± 0.08 μg/act
  FPF, <6.4 μm (%): 45 ± 1%
[3]; 1 month 40° C./75% RH
  FPD, <6.4 μm (μg/act): 3.18 ± 0.15 μg/act
  FPF, <6.4 μm (%): 46 ± 1%
[3]; 3 month 25° C./60% RH
  FPD, <6.4 μm (μg/act): 3.42 ± 0.08 μg/act
  FPF, <6.4 μm (%): 49 ± 1%
[3]; 3 month 40° C./75% RH
  FPD, <6.4 μm (μg/act): 3.62 ± 0.08 μg/act
  FPF, <6.4 μm (%): 50 ± 1%
[3]; 6 month 25° C./60% RH
  FPD, <6.4 μm (μg/act): 3.50 ± 0.07 μg/act
  FPF, <6.4 μm (%): 50 ± 1%
[3]; 6 month 40° C./75% RH
  FPD, <6.4 μm (μg/act): 3.44 ± 0.27 μg/act
  FPF, <6.4 μm (%): 49 ± 2%
[3]; 12 month 25° C./60% RH
  FPD, <6.4 μm (μg/act): 3.46 ± 0.05 μg/act
  FPF, <6.4 μm (%): 48 ± 2%
[3]; Initial
  FPD, <6.4 μm (μg/act): 3.18 ± 0.16 μg/act
  FPF, <6.4 μm (%): 47 ± 2%

## FCC(F)(F)F [HFA-134a, 1,1,1,2-tetrafluoroethane]
[4]
  Liquid Density @ 20° C.: 1.23 g/mL
  Liquid Viscosity @ 20° C.: 0.211 mPa · S
  Surface Tension @ 20° C.: 8.09 mN/m
  Vapor Pressure @ 20° C.: 570 kPa
  Latent Heat @ 25° C.: 177.7 kJ/kg
  Latent Heat @ Boiling Point: 216.7 kJ/kg
[4]; @25
  Water Solubility in Propellant: 1100@25 ppm

## FC(C(F)(F)F)C(F)(F)F [HFA-227ea, 1,1,1,2,3,3,3-Heptafluoropropane]
[4]
  Liquid Density @ 20° C.: 1.41 g/mL
  Liquid Viscosity @ 20° C.: 0.267 mPa · S
  Surface Tension @ 20° C.: 7.50 mN/m
  Vapor Pressure @ 20° C.: 390 kPa
  Latent Heat @ 25° C.: 110.97 kJ/kg
  Latent Heat @ Boiling Point: 131.4 kJ/kg
[4]; @25
  Water Solubility in Propellant: 610@25 ppm

## CC(F)F [HFC-152a, 1,1-Difluoroethane]
[4]
  Liquid Density @ 20° C.: 0.91 g/mL
  Liquid Viscosity @ 20° C.: 0.171 mPa · S
  Surface Tension @ 20° C.: 10.4 mN/m
  Vapor Pressure @ 20° C.: 510 kPa
  Latent Heat @ 25° C.: 279.1 kJ/kg
  Latent Heat @ Boiling Point: 318.4 kJ/kg
[4]; @25
  Water Solubility in Propellant: 2100@25 ppm

## C=C(F)C(F)(F)F [HFO-1234yf, 2,3,3,3-Tetrafluoropropene]
[4]
  Liquid Density @ 20° C.: 1.11 g/mL
  Liquid Viscosity @ 20° C.: 0.164 mPa · S
  Surface Tension @ 20° C.: 6.8 mN/m
  Vapor Pressure @ 20° C.: 592 kPa
  Latent Heat @ 25° C.: 145.4 kJ/kg
  Latent Heat @ Boiling Point: 180.5 kJ/kg
[4]; @24
  Water Solubility in Propellant: 200@24 ppm

## FC=CC(F)(F)F [HFO-1234ze]
[4]
  Liquid Density @ 20° C.: 1.18 g/mL
  Liquid Viscosity @ 20° C.: 0.206 mPa · S
  Surface Tension @ 20° C.: 8.9 mN/m
  Vapor Pressure @ 20° C.: 427 kPa
  Latent Heat @ 25° C.: 166.8 kJ/kg
  Latent Heat @ Boiling Point: 195.43 kJ/kg
[4]; @20
  Water Solubility in Propellant: 225@20 ppm
